One block for each compound: values may come before it.
Experiments:
TNKS-1 = target: T1, TNKS-1 (Homo sapiens, UniProt O95271); experiment: TNKS-1 autoribosylation assay; conditions: for % of inhibition TNKS-1: 1 μM, duplicate; for inhibition at 1 µM: read-out: % of inhibition TNKS-1, 1 μM, duplicate
T1 sequence (O95271 1-1327): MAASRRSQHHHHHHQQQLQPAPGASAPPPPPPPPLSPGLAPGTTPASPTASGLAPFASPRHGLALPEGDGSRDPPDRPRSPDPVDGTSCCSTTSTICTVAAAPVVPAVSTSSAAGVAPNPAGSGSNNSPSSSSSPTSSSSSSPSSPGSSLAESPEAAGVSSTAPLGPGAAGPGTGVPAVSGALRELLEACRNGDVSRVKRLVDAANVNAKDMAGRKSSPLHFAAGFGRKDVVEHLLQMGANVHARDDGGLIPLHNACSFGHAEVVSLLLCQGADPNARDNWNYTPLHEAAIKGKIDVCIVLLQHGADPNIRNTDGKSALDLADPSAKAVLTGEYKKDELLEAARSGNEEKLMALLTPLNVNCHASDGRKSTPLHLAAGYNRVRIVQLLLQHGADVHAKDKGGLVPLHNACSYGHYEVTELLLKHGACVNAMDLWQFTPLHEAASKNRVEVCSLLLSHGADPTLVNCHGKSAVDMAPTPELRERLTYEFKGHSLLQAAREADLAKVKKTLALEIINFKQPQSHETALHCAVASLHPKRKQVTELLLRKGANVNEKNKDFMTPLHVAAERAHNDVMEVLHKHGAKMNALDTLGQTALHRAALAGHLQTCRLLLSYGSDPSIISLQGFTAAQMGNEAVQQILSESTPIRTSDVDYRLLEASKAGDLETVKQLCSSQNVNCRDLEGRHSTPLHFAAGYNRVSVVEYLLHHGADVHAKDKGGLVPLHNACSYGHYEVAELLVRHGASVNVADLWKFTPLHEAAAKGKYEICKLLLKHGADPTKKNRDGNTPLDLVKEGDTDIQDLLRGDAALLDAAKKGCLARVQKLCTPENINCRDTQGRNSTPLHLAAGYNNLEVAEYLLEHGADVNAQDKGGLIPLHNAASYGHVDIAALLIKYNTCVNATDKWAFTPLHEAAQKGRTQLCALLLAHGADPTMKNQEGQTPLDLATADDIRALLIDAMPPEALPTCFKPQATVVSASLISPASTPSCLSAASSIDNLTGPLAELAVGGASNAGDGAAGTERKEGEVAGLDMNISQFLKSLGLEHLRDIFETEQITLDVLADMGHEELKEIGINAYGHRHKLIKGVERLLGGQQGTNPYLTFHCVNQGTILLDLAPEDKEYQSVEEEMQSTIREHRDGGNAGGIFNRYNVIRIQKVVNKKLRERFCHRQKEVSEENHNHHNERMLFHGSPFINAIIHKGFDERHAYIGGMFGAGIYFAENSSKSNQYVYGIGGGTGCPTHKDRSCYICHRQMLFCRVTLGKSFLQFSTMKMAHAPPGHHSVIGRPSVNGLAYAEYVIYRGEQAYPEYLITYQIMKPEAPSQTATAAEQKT

TNKS-2 = target: T2, TNKS-2 (Homo sapiens, UniProt Q9H2K2); experiment: TNKS-2 autoribosylation assay; conditions: for inhibition at 1 µM: read-out: % of inhibition TNKS-2, 1 μM, duplicate
T2 sequence (Q9H2K2 1-1166): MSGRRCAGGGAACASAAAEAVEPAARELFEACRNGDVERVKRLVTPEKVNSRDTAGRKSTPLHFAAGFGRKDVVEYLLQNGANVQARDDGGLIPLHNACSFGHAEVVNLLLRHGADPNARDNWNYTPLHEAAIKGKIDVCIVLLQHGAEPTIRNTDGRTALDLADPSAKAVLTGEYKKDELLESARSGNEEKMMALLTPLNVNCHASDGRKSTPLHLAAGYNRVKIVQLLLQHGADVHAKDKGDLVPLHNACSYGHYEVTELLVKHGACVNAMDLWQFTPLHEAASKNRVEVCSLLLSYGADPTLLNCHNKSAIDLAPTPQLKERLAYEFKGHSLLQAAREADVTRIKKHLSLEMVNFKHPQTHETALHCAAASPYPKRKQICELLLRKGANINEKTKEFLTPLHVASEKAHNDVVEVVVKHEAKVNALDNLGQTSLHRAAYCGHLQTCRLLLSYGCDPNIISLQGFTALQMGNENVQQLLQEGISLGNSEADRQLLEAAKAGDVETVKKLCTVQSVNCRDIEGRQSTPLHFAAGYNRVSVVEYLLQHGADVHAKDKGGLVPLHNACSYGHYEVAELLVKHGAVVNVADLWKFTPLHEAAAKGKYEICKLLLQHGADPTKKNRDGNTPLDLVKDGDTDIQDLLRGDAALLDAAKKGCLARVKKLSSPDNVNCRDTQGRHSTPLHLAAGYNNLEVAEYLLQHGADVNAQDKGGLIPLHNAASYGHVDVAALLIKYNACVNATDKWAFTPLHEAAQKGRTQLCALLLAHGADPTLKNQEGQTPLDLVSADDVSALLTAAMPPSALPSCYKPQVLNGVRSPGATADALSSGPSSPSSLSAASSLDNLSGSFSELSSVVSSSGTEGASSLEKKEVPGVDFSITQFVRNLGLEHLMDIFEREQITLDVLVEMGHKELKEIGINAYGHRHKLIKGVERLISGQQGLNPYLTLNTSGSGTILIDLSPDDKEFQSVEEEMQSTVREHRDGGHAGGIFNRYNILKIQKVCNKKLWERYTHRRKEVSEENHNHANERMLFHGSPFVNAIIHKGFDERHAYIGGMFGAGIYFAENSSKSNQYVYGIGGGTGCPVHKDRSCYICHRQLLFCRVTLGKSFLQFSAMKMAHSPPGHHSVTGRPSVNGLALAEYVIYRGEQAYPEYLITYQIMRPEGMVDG

PARP-2 = PARP-2 (Homo sapiens, UniProt Q9UGN5); conditions: 20 nM, reference compound
Sequence of PARP-2 (Q9UGN5 whole entry): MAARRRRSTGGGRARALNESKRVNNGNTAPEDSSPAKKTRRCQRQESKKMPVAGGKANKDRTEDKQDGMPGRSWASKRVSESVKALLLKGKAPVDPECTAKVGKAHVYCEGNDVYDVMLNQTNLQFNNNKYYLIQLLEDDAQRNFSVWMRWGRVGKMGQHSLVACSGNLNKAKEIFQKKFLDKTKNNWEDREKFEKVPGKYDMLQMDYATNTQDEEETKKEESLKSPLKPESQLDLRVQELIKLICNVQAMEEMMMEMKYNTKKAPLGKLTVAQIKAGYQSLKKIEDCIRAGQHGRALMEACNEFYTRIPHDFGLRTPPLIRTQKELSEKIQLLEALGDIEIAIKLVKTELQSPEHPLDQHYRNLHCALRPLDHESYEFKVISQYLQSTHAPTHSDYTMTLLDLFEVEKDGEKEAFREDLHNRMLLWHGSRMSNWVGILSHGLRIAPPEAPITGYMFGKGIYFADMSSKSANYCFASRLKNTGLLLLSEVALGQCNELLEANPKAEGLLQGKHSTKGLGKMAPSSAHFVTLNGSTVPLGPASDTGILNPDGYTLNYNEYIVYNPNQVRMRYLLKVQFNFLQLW

PARP-14 = PARP-14 (Homo sapiens, UniProt Q460N5); experiment: PARP-14 enzymatic assay; conditions: 100 μM
Sequence of PARP-14 (Q460N5 whole entry): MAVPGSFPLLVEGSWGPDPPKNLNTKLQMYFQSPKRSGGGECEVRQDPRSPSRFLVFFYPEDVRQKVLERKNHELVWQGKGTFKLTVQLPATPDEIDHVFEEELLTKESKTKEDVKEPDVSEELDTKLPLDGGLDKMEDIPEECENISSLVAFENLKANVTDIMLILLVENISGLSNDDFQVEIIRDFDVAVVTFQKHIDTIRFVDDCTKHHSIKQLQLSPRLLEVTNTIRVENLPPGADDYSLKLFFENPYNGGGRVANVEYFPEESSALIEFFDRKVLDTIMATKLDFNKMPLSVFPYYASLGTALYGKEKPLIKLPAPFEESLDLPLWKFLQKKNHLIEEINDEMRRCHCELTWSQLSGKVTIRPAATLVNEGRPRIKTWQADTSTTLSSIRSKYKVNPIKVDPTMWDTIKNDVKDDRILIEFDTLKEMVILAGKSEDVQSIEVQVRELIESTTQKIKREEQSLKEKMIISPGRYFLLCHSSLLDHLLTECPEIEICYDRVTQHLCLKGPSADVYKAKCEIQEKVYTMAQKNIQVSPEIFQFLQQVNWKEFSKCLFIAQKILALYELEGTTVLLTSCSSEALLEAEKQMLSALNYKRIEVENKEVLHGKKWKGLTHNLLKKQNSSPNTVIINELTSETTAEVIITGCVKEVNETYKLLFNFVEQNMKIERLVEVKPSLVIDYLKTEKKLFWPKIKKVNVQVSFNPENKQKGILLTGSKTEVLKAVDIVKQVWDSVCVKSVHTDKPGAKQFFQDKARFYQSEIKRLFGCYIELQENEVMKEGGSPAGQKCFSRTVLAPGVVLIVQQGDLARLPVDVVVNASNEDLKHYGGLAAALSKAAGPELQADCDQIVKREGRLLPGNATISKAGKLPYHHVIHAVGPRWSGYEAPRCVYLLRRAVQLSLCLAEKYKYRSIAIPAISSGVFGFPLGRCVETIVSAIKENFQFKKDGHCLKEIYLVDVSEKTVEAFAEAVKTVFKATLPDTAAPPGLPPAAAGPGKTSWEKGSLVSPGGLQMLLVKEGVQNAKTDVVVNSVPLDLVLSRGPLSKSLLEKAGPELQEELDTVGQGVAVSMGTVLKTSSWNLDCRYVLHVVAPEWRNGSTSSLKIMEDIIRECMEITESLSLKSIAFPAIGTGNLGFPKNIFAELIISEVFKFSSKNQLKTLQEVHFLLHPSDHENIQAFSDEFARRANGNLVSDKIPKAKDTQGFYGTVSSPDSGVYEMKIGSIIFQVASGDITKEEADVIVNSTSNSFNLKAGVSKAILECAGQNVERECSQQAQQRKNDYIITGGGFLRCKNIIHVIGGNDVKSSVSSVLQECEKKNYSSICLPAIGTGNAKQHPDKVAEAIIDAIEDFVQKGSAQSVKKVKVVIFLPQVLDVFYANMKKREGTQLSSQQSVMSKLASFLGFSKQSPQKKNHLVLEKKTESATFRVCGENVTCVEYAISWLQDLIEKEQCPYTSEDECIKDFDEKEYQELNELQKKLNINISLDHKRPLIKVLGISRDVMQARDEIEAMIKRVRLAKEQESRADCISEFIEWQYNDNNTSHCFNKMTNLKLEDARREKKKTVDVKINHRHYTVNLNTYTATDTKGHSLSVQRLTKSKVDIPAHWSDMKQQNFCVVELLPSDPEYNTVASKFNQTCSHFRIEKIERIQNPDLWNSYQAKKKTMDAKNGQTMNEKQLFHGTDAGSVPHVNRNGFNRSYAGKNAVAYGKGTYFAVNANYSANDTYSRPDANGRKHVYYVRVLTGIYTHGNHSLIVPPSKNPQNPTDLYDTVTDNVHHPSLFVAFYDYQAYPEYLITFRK

[1] = test system: TCF transcriptional activity (Wnt) in DLD-1 colorectal cancer cells; experiment: TCF-luciferase reporter; format: cell-based; conditions: DLD-1 cells, 1 μM, 24 h
DLD-1 cancer cells = experiment: Colony growth assay, DLD-1; format: cell-based; conditions: 1, 5 and 10 μM, treated daily, 10 days
[2] = test system: RKO colorectal cancer cell line; experiment: Cell growth inhibition, Wnt-negative RKO; format: cell-based; conditions: negative control cell line
[3] = test system: PARP enzymes (1–3, 6–8, 10–12, 14); experiment: PARP selectivity panel; conditions: 10 μM, duplicate

Compound: O=c1[nH]c(-c2ccccc2)nc2c3c(sc12)CCCC3 [compound 19, 2-Phenyl-6,7,8,9-tetrahydro-3H-benzo[4,5]thieno[3,2-d] pyrimidin-4-one]
% of inhibition TNKS-1 (TNKS-1): nearly inactive

Compound: Olaparib [AZD 2281]
% of inhibition PARP-2 (PARP-2): 100%
% inhibition PARP-14 (PARP-14): less than 20%

Compound: Cc1ccc(-c2nc3c(sc4ccccc43)c(=O)[nH]2)cc1 [compound 22, 2-p-Tolyl-3H-benzo[4,5]thieno[3,2-d]pyrimidin-4-one]
inhibition at 1 µM (TNKS-1): 98%

Compound: CC(C)(C)c1ccc(-c2nc3c(sc4ccccc43)c(=O)[nH]2)cc1 [compound 23, 2-(4-tert-Butyl-phenyl)-3H-benzo[4,5]thieno[3,2-d] pyrimidin-4-one]
TCF reporter activity inhibition [1]: comparable fashion to the reference compounds 1 and IWR-1
long-term growth inhibition of DLD-1 cells (DLD-1 cancer cells): marked efficacy
growth inhibition of Wnt-negative RKO cells [2]: marginal non-specific effects were only detected at concentrations higher than 10 μM
inhibition of the other PARPs tested [3]: below 20%
TNKS-1 inhibition (TNKS-1; 10 μM): fully inhibited
TNKS-2 inhibition (TNKS-2; 10 μM): fully inhibited

Next, values leading:

inhibition at 1 µM (TNKS-1): ≤ 100%
Compound: O=c1[nH]c2cc(O)ccc2c2c1sc1ccccc12 [compound 9, 3-Hydroxy[l]benzothieno[2,3-c]quinolin-6(5H)-one]

% of inhibition TNKS-1 (TNKS-1): > 70%
inhibition at 1 µM (TNKS-2): > 70%
Compound: COc1ccc2c(c1)nc(O)c1sc3ccccc3c12 [compound 7, 3-Methoxy[l]benzothieno[2,3-c]quinolin-6(5H)-one]

inhibition at 1 µM (TNKS-1): 84%
Compound: O=c1[nH]c(-c2ccccc2)cc2c1sc1ccccc12 [compound 16, 3-Phenyl[1]benzothieno[2,3-c]pyridin-1(2H)-one]

inhibition at 1 µM (TNKS-1): ≤ 90%
Compound: O=c1[nH]c2ccccc2c2c1sc1ccc(O)cc12 [compound 8, 10-Hydroxy[l]benzothieno[2,3-c]quinolin-6(5H)-one]

inhibition at 1 µM (TNKS-1): > 70%
inhibition at 1 µM (TNKS-2): > 70%
Compound: COc1ccc2sc3c(O)nc4ccccc4c3c2c1 [compound 6, 10-Methoxy[l]benzothieno[2,3-c]quinolin-6(5H)-one]

Source: article PMC4415586 (European journal of medicinal chemistry, 2014)
